Results reported in publication PMC9405102, “Targeted Modification and Structure-Activity Study of GL-29, an Analogue of the Antimicrobial Peptide Palustrin-2ISb” (Antibiotics, 2022).
Read-outs that look alike come from different tables or passages of the source. Where no end group is shown, it is not given here.

How the values were obtained:
[1] = test system: C. albicans (ATCC CRM 10231); type: cell-based, Candida albicans
Protocol: (§1) The antimicrobial activity of the peptides was determined through the minimum inhibitory concentrations (MICs) and the minimum bactericidal concentration (MBCs) using the broth-dilution method in a 96-well plate, as described in the previous study. Six bacteria, including the Gram-positive bacteria, S. aureus (ATCC CRM 6538), MRSA (ATCC CRM 12493) and E. faecalis (NCTC 12697), the Gram-negative bacteria, E. coli (ATCC CRM 8739), K. pneumoniae (ATCC CRM 43816) and P. aeruginosa (ATCC CRM 9027), the yeast, C. albicans (ATCC CRM 10231) and clinical isolates, S. aureus (B042 V2E1 A), MRSA (B038 V1S1 A), E. coli (ATCC BAA-2340) and K. pneumoniae (ATCC BAA-1705) were used in these assays to evaluate the antimicrobial potency of the two peptides by determining their MICs and MBCs. All bacteria were cultured in MHB and the yeast, C. albicans was cultured in YPD broth overnight. Then, the microorganisms were sub-cultured and diluted to the final concentration of 2 × 10^5 CFU/mL to 5 × 10^5 CFU/mL. The Norfloxacin and amphotericin B were used as positive controls for the bacteria and yeast, respectively. The assay was repeated three times, with five replicates at each time.

E. faecalis (NCTC 12697) [2] = type: cell-based, Enterococcus faecalis
Protocol: as §1

E. faecalis (NCTC 12697) [3] = type: cell-based, Enterococcus faecalis; remark: listed apart in the source
Protocol: (§2) The MBIC and MBEC assays were performed to measure the inhibition and eradication of bacterial biofilm in the presence of different concentrations of peptides. Gram-positive bacteria were inoculated in Luria–Bertani (LB) broth at 37 °C overnight whereas Gram-negative bacteria were inoculated in tryptic soy broth (TSB), and then sub-cultured until reaching the logarithmic growth phase by measuring the OD values at a wavelength of 550nm. For the MBIC assay, 99 µL of diluted bacterial suspension (5 × 10^5 CFU/mL) was mixed with 1 µL of prepared peptide solutions in the wells of a round-bottomed 96-well plate, achieving the final concentrations from 512 to 1 µM, and then incubated at 37 °C for 24 h in a shaking incubator at 200 revolutions per minute (rpm). After this, the plate was washed twice by PBS and fixed with methanol for 30 min. For MBEC assay, 100 µL of diluted bacterial suspension (5 × 10^5 CFU/mL) was seeded into a round-bottomed 96-well plate and incubated at 37 °C for 24 h in a shaking incubator at 200 rpm to obtain mature biofilm. After this, plates were washed twice by PBS and incubated with different concentrations of peptide solution from 512 to 1 µM at 37 °C for 24 h. Afterwards, the plate was washed twice with PBS and fixed with methanol for 30 min. Then, both MBIC and MBEC plates were stained by 130 μL of 0.1% (g/v) crystal violet solutions for 30 min and washed with PBS until no apparent staining was observed. Evaporating crystal violet stains were dissolved by 33% (v/v) acetic acid, and the absorbance values were measured by a Synergy HT Microplate Reader (BioTek, Minneapolis, MN, USA) set to 595 nm. The minimum concentration that inhibited the formation of biofilm was defined when compared to the negative control group, as the MBIC. The minimum concentration that eradicated the biofilm was defined, when compared to the negative control group, as the MBEC. The biofilm assays were performed in triplicate.

MRSA (ATCC CRM 12493) [4] = type: cell-based, methicillin-resistant S. aureus
Protocol: as §2

E. coli (ATCC CRM 8739) [5] = type: cell-based, Escherichia coli
Protocol: as §1

E. coli (ATCC CRM 8739) [6] = type: cell-based, Escherichia coli; remark: listed apart in the source
Protocol: as §2

S. aureus (B042 V2E1 A) = type: cell-based, Staphylococcus aureus
Protocol: as §1

[7] = test system: S. aureus (ATCC CRM 6538); type: cell-based, Staphylococcus aureus
Protocol: as §1

MRSA (B038 V1S1 A) = type: cell-based, methicillin-resistant S. aureus
Protocol: as §1

MRSA (ATCC CRM 12493) [8] = type: cell-based, methicillin-resistant S. aureus; remark: listed apart in the source
Protocol: as §1

[9] = test system: P. aeruginosa (ATCC CRM 9027); type: cell-based, Pseudomonas aeruginosa
Protocol: as §2

[10] = test system: K. pneumoniae (ATCC BAA-1705); type: cell-based, Klebsiella pneumoniae
Protocol: as §1

[11] = test system: K. pneumoniae (ATCC CRM 43816); type: cell-based, Klebsiella pneumoniae
Protocol: as §1

[12] = test system: P. aeruginosa (ATCC CRM 9027); type: cell-based, Pseudomonas aeruginosa; remark: listed apart in the source
Protocol: as §1

[13] = test system: S. aureus (ATCC CRM 6538); type: cell-based, Staphylococcus aureus; remark: listed apart in the source
Protocol: as §2

[14] = test system: K. pneumoniae (ATCC CRM 43816); type: cell-based, Klebsiella pneumoniae; remark: listed apart in the source
Protocol: as §2

[15] = clinical isolated strain S. aureus (B042 V2E1 A)
[16] = clinical isolated strain MRSA (B038 V1S1 A)
[17] = KPC-producing resistant strain K. pneumoniae (ATCC BAA-1705)

GLWNSIKIA-NH2 [GL-9, GLWNSIKIA-NH2]
> 512 µM: MBC (E. coli (ATCC CRM 8739) [5]; E. coli (ATCC CRM 8739))
512 µM: MIC (E. coli (ATCC CRM 8739) [5]; E. coli (ATCC CRM 8739)) | MBC ([7]; S. aureus (ATCC CRM 6538)) | MIC ([7]; S. aureus (ATCC CRM 6538))
>512 µM: MBC ([1]; C. albicans (ATCC CRM 10231)) | MIC ([1]; C. albicans (ATCC CRM 10231)) | MBC (E. faecalis (NCTC 12697) [2]; E. faecalis (NCTC 12697)) | MIC (E. faecalis (NCTC 12697) [2]; E. faecalis (NCTC 12697)) | MBEC (E. faecalis (NCTC 12697) [3]; biofilm eradication, E. faecalis (NCTC 12697)) | MBIC (E. faecalis (NCTC 12697) [3]; biofilm formation, E. faecalis (NCTC 12697)) | MBEC (MRSA (ATCC CRM 12493) [4]; biofilm eradication, MRSA (ATCC CRM 12493)) | MBIC (MRSA (ATCC CRM 12493) [4]; biofilm formation, MRSA (ATCC CRM 12493)) | MBC (S. aureus (B042 V2E1 A); [15]) | MIC (S. aureus (B042 V2E1 A); [15]) | MBC (MRSA (B038 V1S1 A); [16]) | MIC (MRSA (B038 V1S1 A); [16]) | MBC (MRSA (ATCC CRM 12493) [8]; MRSA (ATCC CRM 12493)) | MIC (MRSA (ATCC CRM 12493) [8]; MRSA (ATCC CRM 12493)) | MBEC ([9]; biofilm eradication, P. aeruginosa (ATCC CRM 9027)) | MBIC ([9]; biofilm formation, P. aeruginosa (ATCC CRM 9027)) | MBC [10, 17] | MIC [10, 17] | MBC ([11]; K. pneumoniae (ATCC CRM 43816)) | MIC ([11]; K. pneumoniae (ATCC CRM 43816)) | MBC ([12]; P. aeruginosa (ATCC CRM 9027)) | MIC ([12]; P. aeruginosa (ATCC CRM 9027)) | MBEC ([13]; biofilm eradication, S. aureus (ATCC CRM 6538)) | MBIC ([13]; biofilm formation, S. aureus (ATCC CRM 6538)) | MBEC ([14]; biofilm eradication, K. pneumoniae (ATCC CRM 43816)) | MBIC ([14]; biofilm formation, K. pneumoniae (ATCC CRM 43816))
512/>512 μM: MBEC (E. coli (ATCC CRM 8739) [6]; biofilm eradication, E. coli (ATCC CRM 8739)) | MBIC (E. coli (ATCC CRM 8739) [6]; biofilm formation, E. coli (ATCC CRM 8739))

GLWNSIKIAGKKLFVNVLDKIR-NH2 [GL-22]
8 µM: MBIC (MRSA (ATCC CRM 12493) [4]; ATCC CRM 12493, 24 h) | MBC (MRSA (ATCC CRM 12493) [8]; ATCC CRM 12493) | MIC (MRSA (ATCC CRM 12493) [8]; ATCC CRM 12493) | MBIC ([13]; ATCC CRM 6538, 24 h)
32 µM: MBC (E. faecalis (NCTC 12697) [2]; NCTC 12697) | MIC (E. faecalis (NCTC 12697) [2]; NCTC 12697) | MBIC (E. faecalis (NCTC 12697) [3]; NCTC 12697, 24 h) | MIC (S. aureus (B042 V2E1 A); B042 V2E1 A) | MBC ([12]; ATCC CRM 9027) | MIC ([12]; ATCC CRM 9027)
16 µM: MBIC (E. coli (ATCC CRM 8739) [6]; ATCC CRM 8739, 24 h) | MBIC ([14]; ATCC CRM 43816, 24 h)
4 µM: MBC (E. coli (ATCC CRM 8739) [5]; ATCC CRM 8739) | MIC (E. coli (ATCC CRM 8739) [5]; ATCC CRM 8739) | MBC ([7]; ATCC CRM 6538) | MIC ([7]; ATCC CRM 6538) | MBC (MRSA (B038 V1S1 A); B038 V1S1 A) | MIC (MRSA (B038 V1S1 A); B038 V1S1 A) | MBC ([10]; ATCC BAA-1705) | MIC ([10]; ATCC BAA-1705) | MBC ([11]; ATCC CRM 43816) | MIC ([11]; ATCC CRM 43816)
64 µM: MBC (S. aureus (B042 V2E1 A); B042 V2E1 A)
> 512 µM: MBEC (E. faecalis (NCTC 12697) [3]; NCTC 12697, 24 h) | MBEC (MRSA (ATCC CRM 12493) [4]; ATCC CRM 12493, 24 h) | MBEC (E. coli (ATCC CRM 8739) [6]; ATCC CRM 8739, 24 h) | MBEC ([9]; ATCC CRM 9027, 24 h) | MBEC ([13]; ATCC CRM 6538, 24 h) | MBEC ([14]; ATCC CRM 43816, 24 h)
128 µM: MIC ([1]; ATCC CRM 10231) | MBIC ([9]; ATCC CRM 9027, 24 h)
256 µM: MBC ([1]; ATCC CRM 10231)
